Experimental data: patent publication US20250345318A1, “COMPOUND AND USE THEREOF IN PREVENTING OR TREATING RADIATION DAMAGE” (SIMCERE PHARMACEUTICAL CO., LTD., priority 2022, published 2025)

Columns and labels:
Type in all cases: in vivo
[1] = test system: C57BL/6 male mice; assay: Blood biochemistry after total body irradiation (Example 3)
Procedure: C57BL/6 male mice (24.8±1,6 g in body weight) aged 10 weeks were divided into 4 groups of 8 mice each. After acclimating to the environment, JAC4 (100 mg/kg) or an equal volume of vehicle (polyethylene glycol:ethanol:physiological saline=47.5:7.5:50, v/v/v) was orally administered to the mice once daily for 7 consecutive days. After that, the mice in one JAC4 treatment group and one vehicle group were subjected to total body X-ray irradiation (6 Gy) and JAC4 or vehicle treatment was continued. After 3 days, the administration of JAC4 or vehicle was discontinued, and blood samples, small intestine tissues, and thymus and spleen tissues were collected 4 days later.
The biochemical results of the mice were tested, with procedures as follows: Peripheral blood was collected from the orbit into an ethylenediaminetetraacetic acid K3 tube, followed by immediate blood biochemistry analysis on a blood analyzer.

[2] = test system: C57BL/6 male mice; assay: Dose-response of protection against total body X-ray irradiation: body weight, small intestine villus length (Example 5)
Procedure: C57BL/6 male mice (24.8±1.6 g in body weight) aged 10 weeks were divided into 6 groups: a vehicle control group, a JAC4 (200 mg/kg) treatment group, a vehicle control+radiation group, and JAC4 intervention (50 mg/kg, 100 mg/kg, and 200 mg/kg)+radiation groups, with 12 mice in each group. JAC4 or an equal volume of vehicle (polyethylene glycol:ethanol:physiological saline=47.5:7.5:50, v/v/v) was orally administered to the mice once daily for 7 consecutive days. After that, the mice in the radiation groups were subjected to total body X-ray irradiation (6 Gy). The JAC4 or vehicle treatment was continued for 3 days.
The body weights of the mice before and after the total body X-ray irradiation were measured, and the body weight curves are shown in FIG. 8.
HE staining was performed on the small intestine tissues of mice subjected to total body X-ray irradiation. The length of the small intestine villi in all groups was measured and the results were statistically analyzed. The specific procedures are as follows: 3 mice were randomly selected from each group for statistical analysis of their small intestine tissue HE staining images, and for each mouse, 6 fields of view were randomly selected for inspection (** p<0.01, *** p<0.001).

[3] = test system: JWA^IEC-wt mice; assay: X-ray-induced intestinal injury in JWA^IEC-wt mice (Example 12); conditions: ABI 10 Gy
From the text: The Model Animal Research Institute of Nanjing University was commissioned to conduct the construction of JWA^flox/+ A129 mice and embryo cryopreservation, preservation, and thawing. These mice were bred with wild-type C57/BL6 mice for over six generations to give mice of C57/BL6 background. Villin-cre mice, provided by Shanghai Model Organisms Center, Inc., were C57/BL6 mice. The JWA-knockout mice (JWA^ko) and their littermate control (JWA^wt) counterparts were derived from an in-house conservation breed. The JWA^flox/flox mice were bred from the JWA^flox/+ mice. The intestinal epithelial JWA-knockout mice (JWA^IEC-ko) and control group (JWA^IEC-wt) were obtained through breeding JWA^flex/flex mice with Villin-cre mice.
The off-target model was established using JWA^IEC-ko mice and their JWA^IEC-wt littermates (8 weeks old), and the mice receiving radiation were divided into 4 groups: (1) a JWA^IEC-wt mice+vehicle group (n=5); (2) a JWA^IEC-wt mice+JAC4 group (n=5); (3) a JWA^IEC-ko mice+vehicle group (n=6); (4) a JWA^IEC-ko mice+JAC4 group (n=5). All mice were subjected to abdominal irradiation at 10 Gy. 7 days before radiation, 10 mg/kg JAC4 or an equal volume of vehicle (polyethylene glycol:ethanol:physiological saline=40:7.5:52.5, v/v/v) was administered intragastrically daily until the end of modeling. The blank control group (wild type, n=6) was not irradiated, and the modeling was terminated on day 4 after radiation.
To verify whether the protective effect of JAC4 on X-ray radiation-induced intestinal damage in mice is dependent on the expression of JWA, the present disclosure verified the targeting effect of JAC4 using JWA^IEC-ko mice.
JWA^IEC-ko and JWA^IEC-wt mice were treated daily with JAC4 (10 mg/kg) or an equal volume of vehicle (polyethylene glycol:ethanol:physiological saline=47.5:7.5:50, v/v/v), respectively, from 7 days before the ABI (10 Gy) exposure to 4 days after the exposure. […] Meanwhile, the contents of TNF-α and IL-1β were consistent with the results of FD4. […] As shown in panels E and F, ABI increased the activity of GSH-Px (530.8±207.8 vs. 406.2±197.9 U/mL) and decreased the activity of CAT (89.4 f 0.4 vs. 68.7±14.2 U/mL). JAC4 further enhanced the antioxidant enzymes in JWA^IEC-wt mice (815.1±203.9 vs. 530.8±207.8 U/mL and 85.9±8.2 vs. 68.7±14.2 U/mL; P<0.05, P<0.05). […] Intestinal tissues were isolated, and the expression of apoptotic molecules was detected by Western blot (FIG. 16J). In wild-type mice, compared with the control group, X-rays increased the expression of Bax and cleaved PARP1 in the small intestine.

[4] = test system: C57BL/6 male mice; assay: Survival of mice after abdominal X-ray irradiation (Example 2)
Procedure: C57BL/6 male mice (26.7±1.0 g in body weight) aged 10 weeks were divided into two groups of 10 mice each. After acclimating to the environment, JAC4 (100 mg/kg) or an equal volume of vehicle (polyethylene glycol:ethanol:physiological saline=47.5:7.5:50, v/v/v) was orally administered to the mice once daily for 7 consecutive days. After that, the mice were subjected to abdominal X-ray irradiation (12 Gy) and JAC4 or vehicle treatment was continued. After 3 days, the administration of JAC4 or vehicle was discontinued. The status was observed daily and the body weights of the mice were recorded.

[5] = non-radiation, JAC4 100 mg/kg oral
[6] = JWA^IEC-wt mice, JAC4 10 mg/kg daily

## c1ccc(CSc2nnc(C3COc4ccccc4O3)o2)nc1 (stereo not drawn) [JAC4]
[1]; JAC4 100 mg/kg oral + TBI 6 Gy
  ALT: 31.33±3.14 U/L
  AST: 110.17±20.86 U/L
  CK-MB: 437.67±90.38 U/L
  LDH: 888.67±81.48 U/L
  SOD: 133.00±6.96 U/mL
[1]; [5]
  ALT: 47.17±14.81 U/L
  AST: 140.83±38.72 U/L
  CK-MB: 565.50±261.37 U/L
  LDH: 444.00±94.58 U/L
[2]; JAC4 50, 100, 200 mg/kg oral + TBI 6 Gy vs vehicle+radiation
  body weight loss after radiation: slower body weight loss
[2]; day 3 after TBI 6 Gy, JAC4 50 mg/kg oral
  small intestine villus length: 249.42±27.19 μm
[2]; day 3 after TBI 6 Gy, JAC4 100 mg/kg oral
  small intestine villus length: 244.78±40.74 μm
[2]; day 3 after TBI 6 Gy, JAC4 200 mg/kg oral
  small intestine villus length: 212.43±27.99 μm
[2]; day 7 after TBI 6 Gy, JAC4 50 mg/kg oral
  small intestine villus length: 235.57±24.34 μm
[2]; day 7 after TBI 6 Gy, JAC4 100 mg/kg oral
  small intestine villus length: 254.95±28.91 μm
[2]; day 7 after TBI 6 Gy, JAC4 200 mg/kg oral
  small intestine villus length: 259.17±17.56 μm
[2]; non-radiation, JAC4 200 mg/kg oral
  small intestine villus length: 306.78±14.64 μm
[3]; [6]
  plasma CAT activity: 85.9±8.2 U/mL
  plasma GSH-Px activity: 815.1±203.9 U/mL
  plasma IL-1β: 57.76 ± 5.9 ng/mL
  plasma TNF-α: 583.2 ± 78.2 ng/mL
[3]; JWA^IEC-wt mice, JAC4 10 mg/kg daily, day 4
  plasma FD4 content: 6719.9 ± 1823.5 ng/mL
[3]; wild-type mice, JAC4 10 mg/kg
  expression of Bax and cleaved PARP1 in small intestine (Western blot): downregulated
[4]; JAC4 100 mg/kg oral once daily, 7 days before to 3 days after abdominal X-ray 12 Gy, observation day 30
  mean survival after radiation: 16.8 ± 9.0 days
[4]; JAC4 100 mg/kg oral, ABI 12 Gy, 10 mice per group, day 15
  number of mice died: 4 mice
[4]; JAC4 100 mg/kg oral, ABI 12 Gy, 10 mice per group, day 15, when all vehicle mice had died
  number of mice survived: 6 mice
[4]; JAC4 100 mg/kg oral, ABI 12 Gy, vs vehicle
  weight loss after radiation: slower
